Reference: patent publication US12115178B2, “Acylated active agents and methods of their use for the treatment of autoimmune disorders” (Flagship Pioneering Innovations V, Inc., priority 2018, dated 2024)

Assays:
[1] = Assay 1. Stability in Simulated Gastric Fluid (SGF); assay type: in vitro ADME; settings: SGF pH 1.6 with pepsin, 1 μM, 37° C.
Experimental: Assay 1. Stability of acylated active agents in Simulated Gastric Fluid (SGF). This assay was used to assess the stability of an acylated active agent in a stomach.
Medium was prepared by dissolving 2 g of sodium chloride in 0.6 L in ultrapure water (MilliQ®, Millipore Sigma, Darmstadt, Germany). The pH was adjusted to 1.6 with 1N hydrochloric acid, and the volume was then adjusted to 1 L with purified water.
60 mg FaSSIF powder (Biorelevant™, London, UK) were dissolved in 500 mL buffer (above). Pepsin was added (0.1 mg/mL) (Millipore Sigma, Darmstadt, Germany), and the solution was stirred. The resulting SGF media were used fresh for each experiment.
Test compounds were dissolved in DMSO stock to 1 mM. An aliquot of the DMSO stock solution was removed and diluted in the SGF Media in 15 mL falcon tubes to generate a total compound concentration of 1 μM. A 1 mL aliquot was immediately removed and diluted once with 1 volume of acetonitrile for T0 timepoint. The mixture was sealed and mixed at 37° C. in an incubator. Aliquots (1 mL) were removed at regular intervals and immediately quenched by the addition of 1 volume of acetonitrile. The resulting samples were analyzed by LC/MS to determine degradation rates in SGF.

[2] = Assay 2. Stability in Simulated Intestinal Fluid (SIF); assay type: in vitro ADME; settings: SIF pH 6.7 with pancreatin, 1 μM, 37° C.
Experimental: Assay 2. Stability of acylated active agents in Simulated Intestinal Fluid (SIF). This assay was used to assess the stability of an acylated active agent in a small intestine. Phosphate buffer was prepared by dissolving 0.42 g of sodium hydroxide pellets and 3.95 g of monobasic sodium phosphate monohydrate and 6.19 g of sodium chloride in ultrapure water (MilliQ®, Millipore Sigma, Darmstadt, Germany). The pH was adjusted to 6.7 using aq. HCl and aq. NaOH, as necessary, and the solution was diluted with ultrapure water to produce 1 L of the pH 6.7 buffer. 112 mg FaSSIF powder (Biorelevant™, London, UK) was dissolved in 50 mL of the pH 6.7 buffer. 2 to 3 mL of the resulting solution were then added to 500 mg pancreatin (Millipore Sigma, Darmstadt, Germany). The resulting mixture was agitated by finger tapping the vessel containing the mixture until milky suspension formed. At this time, the remainder of the 50 mL FaSSiF/pH 6.7 buffer solution was added. The resulting suspension was flipped upside down 10 times to produce SIF, which was used fresh. Test compounds were dissolved in DMSO stock to 1 mM. An aliquot of the DMSO stock solution was removed and diluted in the SIF media in 15 mL falcon tubes to produce a mixture with a tested compound concentration of 1 μM. A 1 mL aliquot was immediately removed and diluted once with 1 volume of acetonitrile for T0 timepoint. The mixture was sealed and agitated at 37° C. in an incubator. Aliquots (1 mL) were removed at regular intervals and immediately quenched by the addition of 1 volume of acetonitrile. The resulting samples were analyzed by LC/MS to determine degradation rates.

Structure (SMILES) | Assay 1 (SGF) (% Remaining @ 1 hour) [1] | Assay 2 (SIF) (% @ Remaining 4 hours) [2]
CCCC(=O)O[C@H]1[C@@H](OC(=O)CCC)COC(O)[C@@H]1OC(=O)CCC (stereo partly drawn) [Compound 151, (3S,4S,5R)-4,5-bis(butanoyloxy)-6-hydroxyoxan-3-yl butanoate] | C (>75% of the tested compound remaining) | A (<25% of the tested compound remaining)
CCCC(=O)O[C@@H]1[C@H](OC(=O)CCC)[C@H](C)OC(Oc2ccc(N)cc2C(=O)O)[C@H]1OC(=O)CCC (stereo partly drawn) [Compound 41, 5-amino-2-(((3S,4R,5R,6S)-3,4,5-tris(butyryloxy)-6-methyltetrahydro-2H-pyran-2-yl)oxy)benzoic acid] | C (>75% of the tested compound remaining) | C (>75% of the tested compound remaining)
O=C(CCc1c[nH]c2ccccc12)Oc1cc(C(=O)O)cc(OC(=O)CCc2c[nH]c3ccccc23)c1OC(=O)CCc1c[nH]c2ccccc12 [Compound 202, 3,4,5-tris({[3-(1H-indol-3-yl)propanoyl]oxy})benzoic acid] | A (<25% of the tested compound remaining) | C (>75% of the tested compound remaining)
CC(=O)Oc1cc(C(=O)O)cc(OC(C)=O)c1OC(C)=O [Compound 199, 3,4,5-triacetoxybenzoic acid] | C (>75% of the tested compound remaining) | B (25-75% of the tested compound remaining)
CCC(=O)Oc1ccc2c(c1)oc(=O)c1cc(OC(=O)CC)c(OC(=O)CC)cc12 [Compound 204, [6-oxo-8,9-di(propanoyloxy)benzo[c]chromen-3-yl] propanoate] | C (>75% of the tested compound remaining) | A (<25% of the tested compound remaining)
CCC(=O)Oc1cc(OC(=O)CC)c2c(=O)c(OC(=O)CC)c(-c3cc(OC(=O)CC)c(OC(=O)CC)c(OC(=O)CC)c3)oc2c1 [Compound 13, [4-oxo-3,5-di(propanoyloxy)-2-[3,4,5-tri(propanoyloxy)phenyl]chromen-7-yl] propanoate] | B (25-75% of the tested compound remaining) | A (<25% of the tested compound remaining)
CCCC(=O)O[C@@H]1[C@H](OC(=O)CCC)[C@H](C)OC(O)[C@H]1OC(=O)CCC (stereo partly drawn) [Compound 136, (3S,4R,5R,6S)-4,5-bis(butanoyloxy)-2-hydroxy-6-methyloxan-3-yl butanoate] | C (>75% of the tested compound remaining) | A (<25% of the tested compound remaining)
O=C(CCc1c[nH]c2ccccc12)O[C@@H]1[C@H](OC(=O)CCc2c[nH]c3ccccc23)C=C(C(=O)O)C[C@H]1OC(=O)CCc1c[nH]c2ccccc12 [Compound 216, (3R,4S,5R)-3,4,5-tris({[3-(1H-indol-3-yl)propanoyl]oxy})cyclohex-1-ene-1-carboxylic acid] | B (25-75% of the tested compound remaining) | B (25-75% of the tested compound remaining)
CCCC(=O)O[C@@H]1[C@@H](OC(=O)CCC)[C@@H](OC(=O)CCc2c[nH]c3ccccc23)OC[C@@H]1OC(=O)CCC [Compound 81, (2R,3R,4S,5S)-4,5-bis(butanoyloxy)-2-{[3-(1H-indol-3-yl)propanoyl]oxy}oxan-3-yl butanoate] | B (25-75% of the tested compound remaining) | A (<25% of the tested compound remaining)
CCC(=O)O[C@@H]1[C@@H](OC(=O)CC)[C@@H](OC(=O)CC)CO[C@H]1O [Compound 127, (3S,4S,5R,6R)-6-hydroxy-4,5-bis(propanoyloxy)oxan-3-yl propanoate] | C (>75% of the tested compound remaining) | B (25-75% of the tested compound remaining)
CCCC(=O)O[C@@H]1[C@@H](OC(=O)CCC)[C@@H](Oc2ccccc2C(=O)O)OC[C@@H]1OC(=O)CCC [Compound 31, 2-(((2R,3R,4S,5S)-3,4,5-tris(butyryloxy)tetrahydro-2H-pyran-2-yl)oxy)benzoic acid] | C (>75% of the tested compound remaining) | A (<25% of the tested compound remaining)
CCC(=O)O[C@@H]1[C@@H](OC(=O)CC)[C@H](Oc2ccccc2C(=O)O)OC[C@H]1OC(=O)CC [Compound 27, 2-(((2S,3R,4S,5R)-3,4,5-tris(propionyloxy)tetrahydro-2H-pyran-2-yl)oxy)benzoic acid] | C (>75% of the tested compound remaining) | B (25-75% of the tested compound remaining)
CCC(=O)O[C@H]1[C@H](OC(=O)CC)[C@H](OC(=O)Cc2c[nH]c3ccccc23)O[C@@H](C)[C@H]1OC(=O)CC [Compound 118, (2S,3S,4R,5R,6S)-2-{[2-(1H-indol-3-yl)acetyl]oxy}-6-methyl-4,5-bis(propanoyloxy)oxan-3-yl propanoate] | C (>75% of the tested compound remaining) | A (<25% of the tested compound remaining)
CCC(=O)OC1O[C@@H](C)[C@@H](OC(=O)CC)[C@@H](OC(=O)CC)[C@@H]1OC(=O)CC (stereo partly drawn) [Compound 125, (3S,4R,5R,6S)-6-methyl-3,4,5-tris(propanoyloxy)oxan-2-yl propanoate] | C (>75% of the tested compound remaining) | A (<25% of the tested compound remaining)
CCCC(=O)Oc1cc(OC(=O)CCC)c2c(=O)c(OC(=O)CCC)c(-c3cc(OC(=O)CCC)c(OC(=O)CCC)c(OC(=O)CCC)c3)oc2c1 [Compound 169, 3,5-bis(butanoyloxy)-4-oxo-2-[3,4,5-tris(butanoyloxy)phenyl]-4H-chromen-7-yl butanoate] | C (>75% of the tested compound remaining) | C (>75% of the tested compound remaining)
CCCC(=O)Oc1cc(OC(=O)CCC)c2c(=O)cc(-c3ccc(OC(=O)CCC)c(OC(=O)CCC)c3)oc2c1 [Compound 171, 2-[3,4-bis(butanoyloxy)phenyl]-5-(butanoyloxy)-4-oxo-4H-chromen-7-yl butanoate] | C (>75% of the tested compound remaining) | A (<25% of the tested compound remaining)
CC(=O)Oc1ccc(C2CC(=O)c3c(OC(C)=O)cc(OC(C)=O)cc3O2)cc1 (stereo not drawn) [Compound 9, [4-(5,7-diacetoxy-4-oxo-chroman-2-yl)phenyl] acetate] | C (>75% of the tested compound remaining) | A (<25% of the tested compound remaining)
CCC(=O)O[C@@H]1[C@H](OC(=O)CC)[C@H](C)OC(Oc2ccccc2C(=O)O)[C@H]1OC(=O)CC (stereo partly drawn) [Compound 25, 2-(((3S,4R,5R,6S)-6-methyl-3,4,5-tris(propionyloxy)tetrahydro-2H-pyran-2-yl)oxy)benzoic acid] | C (>75% of the tested compound remaining) | C (>75% of the tested compound remaining)
CCCC(=O)Oc1ccc(C2CC(=O)c3c(OC(=O)CCC)cc(OC(=O)CCC)cc3O2)cc1 (stereo not drawn) [Compound 10, [4-[5,7-di(butanoyloxy)-4-oxo-chroman-2-yl]phenyl] butanoate] | B (25-75% of the tested compound remaining) | A (<25% of the tested compound remaining)
CCC(=O)O[C@@H]1[C@@H](OC(=O)CC)[C@H](OC(=O)CC)CO[C@H]1O [Compound 129, (2R,3R,4S,5R)-2-hydroxy-4,5-bis(propanoyloxy)oxan-3-yl propanoate] | C (>75% of the tested compound remaining) | A (<25% of the tested compound remaining)
CC(=O)Oc1cc(OC(C)=O)c2c(=O)c(OC(C)=O)c(-c3ccc(OC(C)=O)c(OC(C)=O)c3)oc2c1 [Compound 4, [2-acetoxy-4-(3,5,7-triacetoxy-4-oxo-chromen-2-yl)phenyl] acetate] | C (>75% of the tested compound remaining) | 
CC(=O)Oc1ccc(-c2oc3cc(OC(C)=O)cc(OC(C)=O)c3c(=O)c2OC(C)=O)cc1 [Compound 177, [4-(3,5,7-triacetoxy-4-oxo-chromen-2-yl)phenyl] acetate] | C (>75% of the tested compound remaining) | 
